In one assay the test system is EW-24 (Ewing's Sarcoma). The assay is described as follows: Bliss excess, mean over the matrix (fraction); higher = more synergy. The gist of the method:
(§1)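 After 24 hours at 37°C and 5% CO2 in 1536-well plates, cells in DMEM/F12 or RPMI plus 10% FBS received two-drug dose matrices for 72 hours. Viability came from CellTiter-Glo 2.0 luminescence and was scaled as inhibition, anchored at 0 by vehicle wells and at 1 by blank wells. Combination Emax is taken as the second-highest inhibition in the matrix, and Bliss excess as the observed combination effect less EA + EB − EA·EB, with EA and EB the single-agent effects.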

Assay [1] has as its system RF-48 (B-Cell Non-Hodgkin's Lymphoma). The assay is described as above. The gist of the method: as §1

Drawing on the supplement of paper PMC11061612, this text covers Bliss excess for 26 molecules.

Molecules are shown by their SMILES.

For `C=CCn1c(=O)c2cnc(Nc3ccc(N4CCN(C)CC4)cc3)nc2n1-c1cccc(C(C)(C)O)n1` [AZD1775] + CCc1c2c(nc3ccc(O)cc13)-c1cc3c(c(=O)n1C2)COC(=O)[C@]3(O)CC [SN-38] (first compound max 1 µM, partner max 0.3 µM), the Bliss excess with EW-24 (Ewing's Sarcoma) was -0.113; in assay [1], -0.0404.

For the molecule `C=CCn1c(=O)c2cnc(Nc3ccc(N4CCN(C)CC4)cc3)nc2n1-c1cccc(C(C)(C)O)n1` [AZD1775] + Nc1ccn([C@@H]2O[C@H](CO)[C@@H](O)C2(F)F)c(=O)n1 [Gemcitabine] (first compound max 1 µM, partner max 0.3 µM), the Bliss excess in the assay on EW-24 (Ewing's Sarcoma) was -0.0627; in assay [1], -0.005.

As to `CN(CCO)CC[C@H](CSc1ccccc1)Nc1ccc(S(=O)(=O)NC(=O)c2ccc(N3CCC([C@@H](O)c4ccccc4-c4ccc(Cl)cc4)CC3)cc2)cc1S(=O)(=O)C(F)(F)F` [AZD4320] + CS(=O)(=O)CCNCc1ccc(-c2ccc3ncnc(Nc4ccc(OCc5cccc(F)c5)c(Cl)c4)c3c2)o1 [Lapatinib] (first compound max 1 µM, 7x7, partner max 10 µM), the Bliss excess in the assay on EW-24 (Ewing's Sarcoma) is 0.0333; in assay [1], -0.0184.

As for `COc1nnc2ccc(N3CCC(c4ccc(OCCN5CCN(C)C(=O)[C@H]5C)cc4)CC3)nn12` [AZD5153] + C=CCn1c(=O)c2cnc(Nc3ccc(N4CCN(C)CC4)cc3)nc2n1-c1cccc(C(C)(C)O)n1 [AZD1775] (first compound max 1 µM, partner max 1 µM), the Bliss excess is -0.0125 in the assay on EW-24 (Ewing's Sarcoma) and -0.012 in assay [1].

As to `COc1nnc2ccc(N3CCC(c4ccc(OCCN5CCN(C)C(=O)[C@H]5C)cc4)CC3)nn12` [AZD5153] + CC1(C)CCC(CN2CCN(c3ccc(C(=O)NS(=O)(=O)c4ccc(NCC5CCOCC5)c([N+](=O)[O-])c4)c(Oc4cnc5[nH]ccc5c4)c3)CC2)=C(c2ccc(Cl)cc2)C1 [Venetoclax] (first compound max 1 µM, 7x7, partner max 1 µM), the figures for the Bliss excess (in the assay with EW-24 (Ewing's Sarcoma); in assay [1]) were -0.0962 and -0.0312, respectively.

As for `COc1nnc2ccc(N3CCC(c4ccc(OCCN5CCN(C)C(=O)[C@H]5C)cc4)CC3)nn12` [AZD5153] + CCN(CCO)CCCOc1ccc2c(Nc3cc(CC(=O)Nc4cccc(F)c4)[nH]n3)ncnc2c1 [AZD2811] (first compound max 1 µM, 7x7, partner max 1 µM), the Bliss excess is -0.0598 in the assay with EW-24 (Ewing's Sarcoma) and 0.0065 in assay [1].

Consider `COc1nnc2ccc(N3CCC(c4ccc(OCCN5CCN(C)C(=O)[C@H]5C)cc4)CC3)nn12` [AZD5153] + C[C@@H]1COCCN1C2=NC(=NC(=C2)C3(CC3)[S@](=N)(=O)C)C4=C5C=CNC5=NC=C4 [AZD6738] (first compound max 1 µM, 7x7, partner max 10 µM), for which the Bliss excess in the assay on EW-24 (Ewing's Sarcoma) was -0.0044; in assay [1], -0.0851.

For the molecule `COc1nnc2ccc(N3CCC(c4ccc(OCCN5CCN(C)C(=O)[C@H]5C)cc4)CC3)nn12` [AZD5153] + Cc1c2c(nn1C)CSCc1cc(n(C)n1)CSc1cc(c3ccccc3c1)OCCCc1c(C(=O)O)n(C)c3c-2c(Cl)ccc13 [AZD5991] (first compound max 1 µM, 7x7, partner max 1 µM), the Bliss excess in the assay on EW-24 (Ewing's Sarcoma) is -0.0044; in assay [1] it was -0.0863.

`COc1nnc2ccc(N3CCC(c4ccc(OCCN5CCN(C)C(=O)[C@H]5C)cc4)CC3)nn12` [AZD5153] + Cn1cnc2c(F)c(Nc3ccc(Br)cc3Cl)c(C(=O)NOCCO)cc21 [Selumetinib] (first compound max 1 µM, 7x7, partner max 10 µM): the figures for the Bliss excess (with EW-24 (Ewing's Sarcoma); in assay [1]) were -0.0748 and -0.0939, respectively.

Turning to `Cc1c2c(nn1C)CSCc1cc(n(C)n1)CSc1cc(c3ccccc3c1)OCCCc1c(C(=O)O)n(C)c3c-2c(Cl)ccc13` [AZD5991] + CC(=O)O[C@H]1C(=O)[C@@]2(C)[C@H]([C@H](OC(=O)c3ccccc3)[C@]3(O)C[C@H](OC(=O)[C@H](O)[C@@H](NC(=O)c4ccccc4)c4ccccc4)C(C)=C1C3(C)C)[C@]1(OC(C)=O)CO[C@@H]1C[C@@H]2O [Paclitaxel] (first compound max 1 µM, 7x7, partner max 3 µM), the Bliss excess with EW-24 (Ewing's Sarcoma) is 0.0289; in assay [1] it was -0.0407.

Take `Cc1c2c(nn1C)CSCc1cc(n(C)n1)CSc1cc(c3ccccc3c1)OCCCc1c(C(=O)O)n(C)c3c-2c(Cl)ccc13` [AZD5991] + CS(=O)(=O)CCNCc1ccc(-c2ccc3ncnc(Nc4ccc(OCc5cccc(F)c5)c(Cl)c4)c3c2)o1 [Lapatinib] (first compound max 1 µM, 7x7, partner max 10 µM): the Bliss excess in assay [1] is -0.0917.

For `Cc1c2c(nn1C)CSCc1cc(n(C)n1)CSc1cc(c3ccccc3c1)OCCCc1c(C(=O)O)n(C)c3c-2c(Cl)ccc13` [AZD5991] + Nc1ccn([C@@H]2O[C@H](CO)[C@@H](O)C2(F)F)c(=O)n1 [Gemcitabine] (first compound max 1 µM, 7x7, partner max 0.3 µM), the Bliss excess turned out to be 0.0048 in the assay with EW-24 (Ewing's Sarcoma) and 0.0014 in assay [1].

As for `C[C@@H]1COCCN1c1cc(C2([S@](C)(=N)=O)CC2)nc(-c2ccnc3[nH]ccc23)n1` [AZD6738] + C1CC(C1)(C(=O)[O-])C(=O)[O-].N.N.[Pt+2] [Carboplatin] (first compound max 10 µM, 7x7, partner max 10 µM), the Bliss excess is -0.0462 with EW-24 (Ewing's Sarcoma) and -0.0788 in assay [1].

Take `C[C@@H]1COCCN1c1cc(C2([S@](C)(=N)=O)CC2)nc(-c2ccnc3[nH]ccc23)n1` [AZD6738] + Nc1ccn([C@@H]2O[C@H](CO)[C@@H](O)C2(F)F)c(=O)n1 [Gemcitabine] (first compound max 10 µM, 7x7, partner max 0.3 µM): the Bliss excess was found to be 0.0086 in the assay on EW-24 (Ewing's Sarcoma) and 0.0277 in assay [1].

For the molecule `C[C@@H](Nc1cc(F)cc(F)c1)c1cc(C(=O)N(C)C)cc2c(=O)cc(N3CCOCC3)oc12` [AZD8186] + C1CN(CCC1(C(=O)N[C@@H](CCO)C2=CC=C(C=C2)Cl)N)C3=NC=NC4=C3C=CN4 [AZD5363] (first compound max 10 µM, 7x7, partner max 10 µM), the Bliss excess with EW-24 (Ewing's Sarcoma) is -0.0033; in assay [1], -0.033.

`C[C@@H](Nc1cc(F)cc(F)c1)c1cc(C(=O)N(C)C)cc2c(=O)cc(N3CCOCC3)oc12` [AZD8186] + CC(=O)c1c(C)c2cnc(Nc3ccc(N4CCNCC4)cn3)nc2n(C2CCCC2)c1=O [Palbociclib] (first compound max 10 µM, 7x7, partner max 10 µM): the Bliss excess with EW-24 (Ewing's Sarcoma) was determined as 0.0598; in assay [1] it was 0.0054.

As for `NC1(C(=O)N[C@@H](CCO)c2ccc(Cl)cc2)CCN(c2ncnc3[nH]ccc23)CC1` [Capivasertib] + CC(=O)c1c(C)c2cnc(Nc3ccc(N4CCNCC4)cn3)nc2n(C2CCCC2)c1=O [Palbociclib] (first compound max 10 µM, 7x7, partner max 10 µM), the Bliss excess in the assay on EW-24 (Ewing's Sarcoma) is 0.0087; in assay [1] it was -0.0186.

Regarding `NC1(C(=O)N[C@@H](CCO)c2ccc(Cl)cc2)CCN(c2ncnc3[nH]ccc23)CC1` [Capivasertib] + CC(C)n1c(=O)n(C)c2cnc3cc(F)c(-c4ccc(OCCCN5CCCCC5)nc4)cc3c21 [AZD1390] (first compound max 10 µM, 7x7, partner max 0.3 µM), the Bliss excess is -0.218 with EW-24 (Ewing's Sarcoma) and -0.0052 in assay [1].

Regarding `NC1(C(=O)N[C@@H](CCO)c2ccc(Cl)cc2)CCN(c2ncnc3[nH]ccc23)CC1` [Capivasertib] + CCN(CCO)CCCOc1ccc2c(Nc3cc(CC(=O)Nc4cccc(F)c4)[nH]n3)ncnc2c1 [AZD2811] (first compound max 10 µM, 7x7, partner max 1 µM), the Bliss excess with EW-24 (Ewing's Sarcoma) is -0.0029; in assay [1] it was -0.0019.

Regarding `NC1(C(=O)N[C@@H](CCO)c2ccc(Cl)cc2)CCN(c2ncnc3[nH]ccc23)CC1` [Capivasertib] + COc1nnc2ccc(N3CCC(c4ccc(OCCN5CCN(C)C(=O)[C@H]5C)cc4)CC3)nn12 [AZD5153] (first compound max 10 µM, 7x7, partner max 1 µM), the Bliss excess in the assay on EW-24 (Ewing's Sarcoma) is 0.0532; in assay [1] it was -0.0275.

Consider `NC1(C(=O)N[C@@H](CCO)c2ccc(Cl)cc2)CCN(c2ncnc3[nH]ccc23)CC1` [Capivasertib] + C[C@@H]1COCCN1C2=NC(=NC(=C2)C3(CC3)[S@](=N)(=O)C)C4=C5C=CNC5=NC=C4 [AZD6738] (first compound max 10 µM, 7x7, partner max 10 µM), for which the Bliss excess in the assay on EW-24 (Ewing's Sarcoma) was -0.0488; in assay [1], -0.0888.

`NC1(C(=O)N[C@@H](CCO)c2ccc(Cl)cc2)CCN(c2ncnc3[nH]ccc23)CC1` [Capivasertib] + Cn1cnc2c(F)c(Nc3ccc(Br)cc3Cl)c(C(=O)NOCCO)cc21 [Selumetinib] (first compound max 10 µM, 7x7, partner max 10 µM): the Bliss excess in the assay on EW-24 (Ewing's Sarcoma) was -0.0223; in assay [1], -0.0343.

As for `C[C@@H](Oc1cc(-c2cnn(C3CCNCC3)c2)cnc1N)c1c(Cl)ccc(F)c1Cl` [Crizotinib] + CC1=C(C(=CC=C1)Cl)NC(=O)C2=CN=C(S2)NC3=CC(=NC(=N3)C)N4CCN(CC4)CCO [Dasatinib] (first compound max 10 µM, 7x7, partner max 2 µM), the Bliss excess in the assay with EW-24 (Ewing's Sarcoma) is -0.0154; in assay [1], -0.119.

Turning to `C[C@@H](Oc1cc(-c2cnn(C3CCNCC3)c2)cnc1N)c1c(Cl)ccc(F)c1Cl` [Crizotinib] + Cn1cnc2c(F)c(Nc3ccc(Br)cc3Cl)c(C(=O)NOCCO)cc21 [Selumetinib] (first compound max 10 µM, 7x7, partner max 10 µM), the Bliss excess is -0.0464 with EW-24 (Ewing's Sarcoma) and -0.0548 in assay [1].

`CS(=O)(=O)CCNCc1ccc(-c2ccc3ncnc(Nc4ccc(OCc5cccc(F)c5)c(Cl)c4)c3c2)o1` [Lapatinib] + C[C@@H](Oc1cc(-c2cnn(C3CCNCC3)c2)cnc1N)c1c(Cl)ccc(F)c1Cl [Crizotinib] (first compound max 10 µM, 7x7, partner max 10 µM): the Bliss excess with EW-24 (Ewing's Sarcoma) is -0.0105; in assay [1] it was -0.0441.

As for `CS(=O)(=O)CCNCc1ccc(-c2ccc3ncnc(Nc4ccc(OCc5cccc(F)c5)c(Cl)c4)c3c2)o1` [Lapatinib] + Cn1cnc2c(F)c(Nc3ccc(Br)cc3Cl)c(C(=O)NOCCO)cc21 [Selumetinib] (first compound max 10 µM, 7x7, partner max 10 µM), the Bliss excess in the assay on EW-24 (Ewing's Sarcoma) is -0.0473; in assay [1], -0.0137.
